{
  "source": "patent US9018207B2",
  "about": "“Method of treatment or prophylaxis” (Spinifex Pharmaceuticals Pty Ltd, priority 2004, dated 2015)",
  "assay_type_in_all_cases": "in vivo, Sprague-Dawley (SD) rats",
  "key": {"[1]": {"tested_on": "rats with a chronic constriction injury (CCI) of the sciatic nerve", "assay": "Relief of tactile allodynia (von Frey paw withdrawal thresholds) in the ipsilateral (injured) hindpaw of CCI-rats", "conditions": "oral bolus 1 mg/kg vs same dose i.p."}, "STZ-diabetic rats": {"tested_on": "STZ-diabetic rats", "assay": "Relief of tactile allodynia (von Frey paw withdrawal thresholds) in the hindpaws of STZ-diabetic rats (model of PDN)", "procedure": "Adult male SD rats were anaesthetized in a manner similar to that described above, to facilitate insertion of a polyethylene cannula (previously filled with 0.1 ml of sterile saline) into the right common jugular vein. Jugular vein cannulae were tested for correct placement by the withdrawal of a small amount of blood. Diabetes was induced following an acute i.v. injection of streptozotocin (STZ) (80 mg/kg) in 0.1 M citrate buffer (pH 4.5) into the jugular vein. Diabetes was confirmed by monitoring the water intake and blood glucose concentration in individual rats. Blood glucose was monitored using either (Glucostix™) or a Precision QID™ test kit.\nConsistent with previous studies in the literature (Calcutt et al., 1996, Pain. 68(2-3):293-9), rats that drank more than 100 mL of water per day by 10 days post-STZ injection, were classified as diabetic, and only rats with blood glucose concentrations exceeding 15 mM were included in the subsequent experiments. By comparison, the water intake of control non-diabetic rats was approximately 20 mL per day and blood glucose concentrations were in the range 5-6 mM, consistent with the literature (Calcutt et al., 1996, supra).\nWhilst under light anaesthesia with CO2/O2 (50:50%), CCI-rats or STZ-diabetic rats received a single bolus injection (200 μL) of one AT2 receptor antagonist (PD123,319 or L-159,686) by the intravenous (i.v.) or the intraperitoneal (i.p.) route, using a 250 μL Hamilton syringe. The test compounds were administered to CCI-rats at 14 days after CCI-surgery and to STZ-diabetic rats at approximately 8-wks after the induction of diabetes with STZ. Relief of tactile (mechanical) allodynia, the defining symptom of neuropathic pain, by each of the test agents, PD123,319 or L-159,686, was quantified using calibrated von Frey filaments as described below.\nTactile allodynia was quantified using calibrated von Frey filaments. Rats were placed in wire mesh testing cages (20 cm×20 cm×20 cm) and allowed to acclimatise for approximately […] Von Frey filaments were used to determine the lowest mechanical threshold required for a brisk paw withdrawal reflex. Briefly, the filament that produced the lowest force was applied to the plantar surface of the hindpaw until the filament buckled slightly. Absence of a response after 5 s prompted use of the next filament in an ascending sequence. Filaments used produced a buckling weight of 2, 4, 6, 8, 10, 12, 14, 16, 18 and 20 g and these were calibrated prior to each testing session.\nFor CCI-rats, baseline von Frey paw withdrawal thresholds (PWTs) were quantified prior to CCI-surgery, and at 14 days post-surgery immediately prior to drug administration. For STZ-diabetic rats, baseline von Frey PWT values were determined prior to the induction of diabetes with STZ and at 1-2 weekly intervals thereafter for 8 weeks to document the temporal development of tactile allodynia. For all rats, baseline PWTs were the mean of three readings taken, 5 min apart before drug administration and were determined separately for each hindpaw. After administration of each test compound, von Frey PWTs were determined at the following post-dosing times: 0.08, 0.25, 0.5, 0.75, 1, 1.25, 1.5, 2 and 3 h.\nPaw withdrawal thresholds (PWTs; g) were plotted against time to construct response versus time curves for each of the two test compounds (PD123,319 and L-159,686) for each dose and dosing route.\nWhilst adult male SD rats were anaesthetized with 3% isoflurane: 97% oxygen, a short polyethylene cannula (0.4 mm ID, 0.8 mm OD) was inserted into the jugular vein to facilitate the intravenous (i.v) administration of a single dose of STZ (75 mg/kg). After removal of the i.v. cannula, the jugular vein was tied off, the wound was closed and topical bupivacaine was applied. Rats received benzylpenicillin (60 mg s.c.) to prevent infection and were kept warm during surgical recovery. […]"}, "[2]": {"tested_on": "rats with a chronic constriction injury (CCI) of the sciatic nerve", "assay": "Antinociception (von Frey paw withdrawal thresholds) in the contralateral hindpaw of CCI-rats", "conditions": "i.p. doses up to 3 mg/kg", "procedure": "(§1) Adult male Sprague-Dawley (SD) rats were anaesthetized with Zoletil 100® (0.09 ml/200 g) and Xylazil-20™ (0.1 mL/200 g) administered by intraperitoneal (i.p.) injection, and a chronic constriction injury (CCI) of the sciatic nerve was produced according to the method of Bennett and Xie (1988). Briefly, the left common sciatic nerve was exposed at mid-thigh level by blunt dissection through the biceps femoris. Proximal to the trifurcation, 10 mm of nerve was freed of adhering tissue and four loose ligatures (3.0 silk) were tied around the sciatic nerve 1 mm apart). The incision was closed in layers. After surgery, rats received benzylpenicillin (60 mg s.c.) to prevent infection and were kept warm during surgical recovery. Rats were housed singly for 10-14 days prior to AT2 receptor antagonist or vehicle (normal saline) administration. After CCI-surgery, rats were inspected daily with regard to posture of the affected hindpaw, exploring behavior, body weight and water intake, and any signs of autotomy. Whilst under light anaesthesia with CO2/O2 (50:50%), CCI-rats or STZ-diabetic rats received a single bolus injection (200 μL) of one AT2 receptor antagonist (PD123,319 or L-159,686) by the intravenous (i.v.) or the intraperitoneal (i.p.) route, using a 250 μL Hamilton syringe. The test compounds were administered to CCI-rats at 14 days after CCI-surgery and to STZ-diabetic rats at approximately 8-wks after the induction of diabetes with STZ. Relief of tactile (mechanical) allodynia, the defining symptom of neuropathic pain, by each of the test agents, PD123,319 or L-159,686, was quantified using calibrated von Frey filaments as described below. Tactile allodynia was quantified using calibrated von Frey filaments. Rats were placed in wire mesh testing cages (20 cm×20 cm×20 cm) and allowed to acclimatise for approximately […] Von Frey filaments were used to determine the lowest mechanical threshold required for a brisk paw withdrawal reflex. Briefly, the filament that produced the lowest force was applied to the plantar surface of the hindpaw until the filament buckled slightly. Absence of a response after 5 s prompted use of the next filament in an ascending sequence. Filaments used produced a buckling weight of 2, 4, 6, 8, 10, 12, 14, 16, 18 and 20 g and these were calibrated prior to each testing session. […] For CCI-rats, baseline von Frey paw withdrawal thresholds (PWTs) were quantified prior to CCI-surgery, and at 14 days post-surgery immediately prior to drug administration. For STZ-diabetic rats, baseline von Frey PWT values were determined prior to the induction of diabetes with STZ and at 1-2 weekly intervals thereafter for 8 weeks to document the temporal development of tactile allodynia. For all rats, baseline PWTs were the mean of three readings taken, 5 min apart before drug administration and were determined separately for each hindpaw. After administration of each test compound, von Frey PWTs were determined at the following post-dosing times: 0.08, 0.25, 0.5, 0.75, 1, 1.25, 1.5, 2 and 3 h. Paw withdrawal thresholds (PWTs; g) were plotted against time to construct response versus time curves for each of the two test compounds (PD123,319 and L-159,686) for each dose and dosing route. Whilst adult male SD rats were anaesthetized with 3% isoflurane: 97% oxygen, four loose ligatures were tied around one sciatic nerve to produce a unilateral chronic constriction injury (CCI) according to the method of Bennett and Xie (1988, Pain 33: 87-107). […]"}, "[3]": {"tested_on": "rats with a chronic constriction injury (CCI) of the sciatic nerve", "assay": "Relief of tactile allodynia (von Frey paw withdrawal thresholds) in the ipsilateral (injured) hindpaw of CCI-rats", "procedure": "as §1, with “87-107). Briefly, the left common sciatic nerve was exposed at mid-thigh level by blunt dissection through the biceps femoris. Proximal to the trifurcation, 10 mm of nerve was freed of adhering tissue and four loose ligatures (3.0 silk) were tied around the sciatic nerve 1 mm apart). The incision was closed in layers. After surgery, rats received benzylpenicillin (60 mg s.c.) to prevent infection and were kept warm during surgical recovery.” for “87-107).”"}, "[4]": {"conditions": "STZ-diabetic rats, i.p. bolus 0.001 to 3.0 μg/kg"}, "[5]": {"conditions": "CCI-rats, i.p. bolus 0.03 to 3 mg/kg"}},
  "note": "Where “and” joins values, the source holds several entries; their conditions need not be identical. Identical values can stand only once. Entries after “also recorded” stand apart in the source; their conditions may differ.",
  "data": [
    {"molecule": "COc1ccc(Cn2cnc3c2C[C@@H](C(=O)O)N(C(=O)C(c2ccccc2)c2ccccc2)C3)cc1C", "note": "[PD-121,981]", "values": [
      {"measurement": "extent and duration of the anti-allodynic response, oral compared with i.p. route", "setting": "[1]", "value": "similar"},
      {"measurement": "relief of tactile allodynia (summary in discussion)", "setting": "STZ-diabetic rats; STZ-diabetic rat model of PDN, single i.p. bolus doses", "value": "potent relief of tactile allodynia"},
      {"measurement": "duration of action", "setting": "STZ-diabetic rats; STZ-diabetic rats, 0.1 μg/kg, irrespective of dosing route (oral or i.p.)", "value": "exceeded 3 h"},
      {"measurement": "onset of action", "setting": "STZ-diabetic rats; [4]", "value": "rapid onset of action"},
      {"measurement": "relief of tactile allodynia", "setting": "STZ-diabetic rats; [4]", "value": "dose-dependent relief of tactile allodynia"},
      {"measurement": "time of peak anti-allodynia post-dosing", "setting": "STZ-diabetic rats; [4]", "value": "0.5 to 1.0", "unit": "h"},
      {"measurement": "duration of action", "setting": "STZ-diabetic rats; STZ-diabetic rats, i.p. doses in the range 0.03-3.0 μg/kg", "value": "> 3", "unit": "h"},
      {"measurement": "reversal of tactile allodynia in the hindpaws", "setting": "STZ-diabetic rats; STZ-diabetic rats, i.p., higher doses tested", "value": "fully reversed"},
      {"measurement": "extent and duration of the anti-allodynic response, oral compared with i.p. route", "setting": "STZ-diabetic rats; STZ-diabetic rats, oral bolus 0.1 μg/kg vs same dose i.p.", "value": "similar"},
      {"measurement": "onset of anti-allodynia (summary in discussion)", "setting": "STZ-diabetic rats; STZ-diabetic rats, single i.p. bolus doses", "value": "relatively rapid onset"},
      {"measurement": "antinociception in the contralateral hindpaw", "setting": "[2]", "value": "insignificant antinociception"},
      {"measurement": "doses required to produce significant relief of tactile allodynia in CCI-rats compared with STZ-diabetic rats", "setting": "[3]; CCI-rats vs STZ-diabetic rats", "value": "considerably larger doses"},
      {"measurement": "duration of action", "setting": "[3]; CCI-rats, 1 mg/kg, irrespective of dosing route (oral or i.p.)", "value": 3, "unit": "h"},
      {"measurement": "anti-allodynia (relief of tactile allodynia) in the ipsilateral hindpaw", "setting": "[3]; [5]", "value": "dose-dependent anti-allodynia; also recorded: dose-dependent relief of tactile allodynia"},
      {"measurement": "durations of action", "setting": "[3]; [5]", "value": "2 to 3", "unit": "h"},
      {"measurement": "onset of anti-allodynia in the ipsilateral hindpaw", "setting": "[3]; [5]", "value": "rapid onset"},
      {"measurement": "time of peak anti-allodynia in the ipsilateral hindpaw post-dosing", "setting": "[3]; [5]", "value": "0.5 to 0.75 h and 0.5 to 1.0 h"}
    ]}
  ]
}
